Test results from US10100049B2, “JAK kinase inhibitor compounds for treatment of respiratory disease” (THERAVANCE BIOPHARMA R&D IP, LLC, priority 2015, dated 2018).

What was measured:
JAK1 = JAK1 (Homo sapiens (Human), UniProt P23458); assay: LanthaScreen JAK biochemical assay (JAK1); conditions: for fold less potent than the corresponding compound of the invention in the enzyme assay: JAK1 enzyme assay
[1] = system: IL-13 induced STAT6 phosphorylation in BEAS-2B human lung epithelial cells; assay: AlphaScreen cellular potency assay, IL-13 induced STAT6 phosphorylation in BEAS-2B cells; type: cell-based
Method: The AlphaScreen JAM cellular potency assay was carried out by measuring interleukin-13 (IL-13, R&D Systems) induced STAT6 phosphorylation in BEAS-2B human lung epithelial cells (ATCC). The anti-STAT6 antibody (Cell Signaling Technologies) was conjugated to AlphaScreen acceptor beads (Perkin Elmer), while the anti-pSTAT6 (pTyr641) antibody (Cell Signaling Technologies) was biotinylated using EZ-Link Sulfo-NHS-Biotin (Thermo Scientific).
BEAS-2B cells were grown at 37° C. in a 5% CO2 humidified incubator in 50% DMEM/50% F-12 medium (Life Technologies) supplemented with 10% FBS (Hyclone), 100 U/mL penicillin, 100 μg/mL streptomycin (Life Technologies), and 2 mM GlutaMAX (Life Technologies). On day 1 of the assay, cells were seeded at a 7,500 cells/well density in white poly-D-lysine-coated 384-well plates (Corning) with 25 μL medium, and were allowed to adhere overnight in the incubator. On day 2 of the assay, the medium was removed and replaced with 12 μL of assay buffer (Hank's Balanced Salt Solution/HBSS, 25 mM HEPES, and 1 mg/ml bovine serum albumin/BSA) containing dose-responses of test compounds. Compounds were serially diluted in DMSO and then diluted another 1000-fold in media to bring the final DMSO concentration to 0.1%. Cells were incubated with test compounds at 37° C. for 1 h, and followed by the addition of 12 μl of pre-warmed IL-13 (80 ng/ml in assay buffer) for stimulation. After incubating at 37° C. for 30 min, the assay buffer (containing compound and IL-13) was removed, and 10 μl of cell lysis buffer (25 mM HEPES, 0.1% SDS, 1% NP-40, 5 mM MgCl2, 1.3 mM EDTA, 1 mM EGTA, and supplement with Complete Ultra mini protease inhibitors and PhosSTOP from Roche Diagnostics). The plates were shaken at ambient temperature for 30 min before the addition of detection reagents. A mixture of biotin-anti-pSTAT6 and anti-STAT6 conjugated acceptor beads was added first and incubated at ambient temperature for 2 h, followed by the addition of streptavidin conjugated donor beads (Perkin Elmer). After a minimum of 2 h incubation, the assay plates were read on the EnVision plate reader.
Results were expressed as the negative logarithm of the IC50 value, pIC50.

[2] = system: IL-13 induced pSTAT6 in lung tissue; assay: Murine model of IL-13 induced pSTAT6 induction in lung tissue; type: in vivo; conditions: mouse lung; for factor by which lung concentration was smaller than that of the corresponding compound of the invention: pharmacodynamic assay
Method: Il-13 is an important cytokine underlying the pathophysiology of asthma (Kudlacz et al. Eur. J. Pharmacol, 2008, 582, 154-161). IL-13 binds to cell surface receptors activating members of the Janus family of kinases (JAK) which then phosphorylate STAT6 and subsequently activates further transcription pathways. In the described model, a dose of IL-13 was delivered locally into the lungs of mice to induce the phosphorylation of STAT6 (pSTAT6) which is then measured as the endpoint.
Adult balb/c mice from Harlan were used in the assay. On the day of study, animals were lightly anesthetized with isoflurane and administered either vehicle or test compound (0.5 mg/mL, 50 μL total volume over several breaths) via oral aspiration. Animals were placed in lateral recumbency post dose and monitored for full recovery from anesthesia before being returned to their home cage. Four hours later, animals were once again briefly anesthetized and challenged with either vehicle or IL-13 (0.03 μg total dose delivered, 50 μL total volume) via oral aspiration before being monitored for recovery from anesthesia and returned to their home cage. One hour after vehicle or IL-13 administration, lungs were collected for both pSTAT6 detection using an anti-pSTAT6 ELISA (rabbit mAb capture/coating antibody; mouse mAb detection/report antibody: anti-pSTAT6-pY641; secondary antibody: anti-mouse IgG-HRP) and analyzed for total drug concentration as described above in Assay 4.
Selected compounds of the invention were tested in the assay. Activity in the model is evidenced by a decrease in the level of pSTAT6 present in the lungs of treated animals at 5 hours compared to the vehicle treated, IL-13 challenged control animals. The difference between the control animals which were vehicle-treated, IL-13 challenged and the control animals which were vehicle-treated, vehicle challenged dictated the 0% and 100% inhibitory effect, respectively, in any given experiment.

[3] = system: Alternaria-induced BALF eosinophils; assay: Murine model of Alternaria alternata-induced eosinophilic inflammation of the lung; type: in vivo; conditions: mouse; maximum statistically significant inhibition; 0.1-1.0 mg/mL, 50 μL oropharyngeal aspiration; BALF 48 h after alternaria
Method: Airway eosinophilia is a hallmark of human asthma. Alternaria alternata is a fungal aeroallergen that can exacerbate asthma in humans and induces eosinophilic inflammation in the lungs of mice (Havaux et al. Clin Exp Immunol. 2005, 139(2):179-88).
Seven- to nine-week old male C57 mice from Taconic were used in the study. On the day of study, animals were lightly anesthetized with isoflurane and administered either vehicle or test compound (0.1-1.0 mg/mL, 50 μL total volume over several breaths) via oropharyngeal aspiration. Animals were placed in lateral recumbency post dose and monitored for full recovery from anesthesia before being returned to their home cage. One hour later, animals were once again briefly anesthetized and challenged with either vehicle or alternaria extract (200 ug total extract delivered, 50 μL total volume) via oropharyngeal aspiration before being monitored for recovery from anesthesia and returned to their home cage. Forty-eight hours after alternaria administration, bronchoalveolar lavage fluid (BALF) was collected and eosinophils were counted in the BALF using the Advia 120 Hematology System (Siemens).
Selected compounds of the invention were tested in this alternaria assay. Activity in the model is evidenced by a decrease in the level of eosinophils present in the BALF of treated animals at forty-eight hours compared to the vehicle treated, alternaria challenged control animals. Data are expressed as percent inhibition of the vehicle treated, alternaria challenged BALF eosinophils response. To calculate percent inhibition, the number of BALF eosinophils for each condition is converted to percent of the average vehicle treated, alternaria challenged BALF eosinophils and subtracted from one-hundred percent.

JAK2 = JAK2 (Homo sapiens (Human), UniProt O60674)
Chain of JAK2 (O60674 whole entry): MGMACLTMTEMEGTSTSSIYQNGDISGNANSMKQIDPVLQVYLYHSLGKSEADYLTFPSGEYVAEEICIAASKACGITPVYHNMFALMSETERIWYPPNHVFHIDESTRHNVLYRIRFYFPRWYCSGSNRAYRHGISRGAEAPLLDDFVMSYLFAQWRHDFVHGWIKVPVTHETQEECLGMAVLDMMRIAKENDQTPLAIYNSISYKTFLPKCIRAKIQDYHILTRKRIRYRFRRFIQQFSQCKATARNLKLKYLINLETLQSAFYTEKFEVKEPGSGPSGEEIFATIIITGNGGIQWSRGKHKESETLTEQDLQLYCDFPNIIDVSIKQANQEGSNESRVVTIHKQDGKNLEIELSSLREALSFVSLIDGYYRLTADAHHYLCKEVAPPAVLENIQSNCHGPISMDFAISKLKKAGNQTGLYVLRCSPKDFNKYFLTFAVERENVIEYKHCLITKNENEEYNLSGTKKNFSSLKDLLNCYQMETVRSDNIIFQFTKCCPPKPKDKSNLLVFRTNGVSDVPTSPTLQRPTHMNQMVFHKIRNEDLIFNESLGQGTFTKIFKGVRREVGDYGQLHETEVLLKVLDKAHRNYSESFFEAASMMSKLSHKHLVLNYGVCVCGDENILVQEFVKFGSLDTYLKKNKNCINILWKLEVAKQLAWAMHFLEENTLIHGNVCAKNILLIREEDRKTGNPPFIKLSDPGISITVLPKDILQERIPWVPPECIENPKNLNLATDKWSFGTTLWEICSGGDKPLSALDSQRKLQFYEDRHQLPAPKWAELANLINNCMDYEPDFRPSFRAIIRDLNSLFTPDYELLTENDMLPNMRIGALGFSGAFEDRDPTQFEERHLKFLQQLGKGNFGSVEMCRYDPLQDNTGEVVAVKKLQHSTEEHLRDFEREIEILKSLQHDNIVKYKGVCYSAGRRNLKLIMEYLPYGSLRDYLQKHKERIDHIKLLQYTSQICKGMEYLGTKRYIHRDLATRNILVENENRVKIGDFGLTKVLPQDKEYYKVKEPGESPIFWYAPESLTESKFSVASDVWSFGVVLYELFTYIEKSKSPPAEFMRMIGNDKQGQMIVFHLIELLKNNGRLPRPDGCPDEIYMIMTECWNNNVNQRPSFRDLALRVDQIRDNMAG

[4] = Pharmacokinetics in plasma and lung in mouse; type: in vivo; conditions: oral aspiration 0.2 mg/mL 50 uL, lung AUC (μg hr/g) / plasma AUC (μg hr/mL)
Method: Plasma and lung levels of test compounds and ratios thereof were determined in the following manner. BALB/c mice from Charles River Laboratories were used in the assay. Test compounds were individually formulated in 20% propylene glycol in pH 4 citrate buffer at a concentration of 0.2 mg/mL and 50 uL of the dosing solution was introduced into the trachea of a mouse by oral aspiration. At various time points (typically 0.167, 2, 6, 24 hr) post dosing, blood samples were removed via cardiac puncture and intact lungs were excised from the mice. Blood samples were centrifuged (Eppendorf centrifuge, 5804R) for 4 minutes at approximately 12,000 rpm at 4° C. to collect plasma. Lungs were padded dry, weighed, and homogenized at a dilution of 1:3 in sterile water. Plasma and lung levels of test compound were determined by LC-MS analysis against analytical standards constructed into a standard curve in the test matrix. A lung to plasma ratio was determined as the ratio of the lung AUC in μg hr/g to the plasma AUC in μg hr/mL, where AUC is conventionally defined as the area under the curve of test compound concentration vs. time.

Tyk2 = Tyk2 (Homo sapiens (Human), UniProt P29597); assay: LanthaScreen JAK biochemical assay (Tyk2); conditions: read-out: Tyk 2 (PKi); note: ATP at Km 10 µM
Chain of Tyk2 (P29597 whole entry): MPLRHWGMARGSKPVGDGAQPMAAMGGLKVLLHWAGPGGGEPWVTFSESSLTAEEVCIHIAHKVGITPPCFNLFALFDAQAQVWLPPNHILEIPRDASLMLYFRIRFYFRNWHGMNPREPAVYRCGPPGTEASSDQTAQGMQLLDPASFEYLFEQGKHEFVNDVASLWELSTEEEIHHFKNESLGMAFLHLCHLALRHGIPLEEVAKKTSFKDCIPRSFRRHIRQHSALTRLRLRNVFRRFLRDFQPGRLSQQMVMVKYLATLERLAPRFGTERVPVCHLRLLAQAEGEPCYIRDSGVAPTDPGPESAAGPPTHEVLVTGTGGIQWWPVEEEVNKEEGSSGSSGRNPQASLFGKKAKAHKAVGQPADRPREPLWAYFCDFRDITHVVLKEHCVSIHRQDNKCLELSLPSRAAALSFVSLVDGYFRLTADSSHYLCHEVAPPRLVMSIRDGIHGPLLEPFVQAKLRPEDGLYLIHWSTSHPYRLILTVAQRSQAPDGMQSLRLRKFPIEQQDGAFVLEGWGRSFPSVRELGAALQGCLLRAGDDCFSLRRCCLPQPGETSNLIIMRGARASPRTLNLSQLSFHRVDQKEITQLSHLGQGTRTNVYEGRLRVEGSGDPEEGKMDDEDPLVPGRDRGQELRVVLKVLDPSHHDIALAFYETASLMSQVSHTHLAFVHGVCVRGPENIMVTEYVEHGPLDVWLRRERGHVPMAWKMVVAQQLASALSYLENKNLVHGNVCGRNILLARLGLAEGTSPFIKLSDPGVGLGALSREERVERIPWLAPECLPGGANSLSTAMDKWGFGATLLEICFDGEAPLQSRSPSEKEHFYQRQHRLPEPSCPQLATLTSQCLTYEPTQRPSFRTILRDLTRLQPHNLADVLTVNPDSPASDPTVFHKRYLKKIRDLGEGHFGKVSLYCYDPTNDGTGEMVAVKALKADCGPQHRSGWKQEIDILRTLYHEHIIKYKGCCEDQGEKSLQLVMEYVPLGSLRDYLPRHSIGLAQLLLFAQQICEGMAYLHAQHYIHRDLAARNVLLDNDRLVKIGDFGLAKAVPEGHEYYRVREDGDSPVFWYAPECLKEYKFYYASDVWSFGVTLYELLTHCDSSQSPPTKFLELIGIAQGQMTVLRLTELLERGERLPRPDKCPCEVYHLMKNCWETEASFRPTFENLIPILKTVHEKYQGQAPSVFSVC

JAK3 = JAK3 (Homo sapiens (Human), UniProt P52333); assay: LanthaScreen JAK biochemical assay (JAK3); conditions: ATP at Km 1.6 μM; read-out: JAK 3 (pKi) (converted)
Chain of JAK3 (P52333 whole entry): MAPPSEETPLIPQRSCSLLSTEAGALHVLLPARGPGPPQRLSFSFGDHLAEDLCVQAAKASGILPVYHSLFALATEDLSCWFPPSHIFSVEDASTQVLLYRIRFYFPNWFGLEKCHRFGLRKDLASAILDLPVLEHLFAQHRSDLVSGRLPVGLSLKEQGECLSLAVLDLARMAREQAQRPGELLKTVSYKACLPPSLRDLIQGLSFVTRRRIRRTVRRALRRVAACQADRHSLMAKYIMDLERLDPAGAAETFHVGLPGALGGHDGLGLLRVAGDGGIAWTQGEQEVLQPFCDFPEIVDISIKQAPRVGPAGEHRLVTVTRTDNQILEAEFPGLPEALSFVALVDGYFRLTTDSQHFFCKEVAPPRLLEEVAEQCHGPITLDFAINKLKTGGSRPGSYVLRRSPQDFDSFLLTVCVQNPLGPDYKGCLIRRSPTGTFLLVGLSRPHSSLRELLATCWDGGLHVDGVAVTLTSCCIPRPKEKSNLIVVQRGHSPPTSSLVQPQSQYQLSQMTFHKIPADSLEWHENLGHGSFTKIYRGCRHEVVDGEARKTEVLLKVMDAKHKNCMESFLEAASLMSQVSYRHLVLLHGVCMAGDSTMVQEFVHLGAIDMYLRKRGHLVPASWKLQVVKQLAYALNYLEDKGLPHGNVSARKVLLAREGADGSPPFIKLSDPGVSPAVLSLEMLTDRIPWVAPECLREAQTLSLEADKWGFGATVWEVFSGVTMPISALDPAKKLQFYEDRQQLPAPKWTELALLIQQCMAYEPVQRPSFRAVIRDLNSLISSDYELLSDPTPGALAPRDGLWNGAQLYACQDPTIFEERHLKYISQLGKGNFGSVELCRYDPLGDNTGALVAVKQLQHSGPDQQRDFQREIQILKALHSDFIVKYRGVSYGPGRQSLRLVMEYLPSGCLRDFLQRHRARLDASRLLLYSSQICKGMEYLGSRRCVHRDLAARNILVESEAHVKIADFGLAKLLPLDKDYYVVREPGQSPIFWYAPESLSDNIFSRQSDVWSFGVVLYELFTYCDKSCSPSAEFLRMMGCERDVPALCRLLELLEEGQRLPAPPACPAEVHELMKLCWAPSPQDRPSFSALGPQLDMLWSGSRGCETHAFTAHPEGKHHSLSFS

[5] = Dynamic moisture sorption assessment; type: physicochemical
Method: Dynamic moisture sorption (DMS) measurement was performed using a VTI atmospheric microbalance, SGA-100 system (VTI Corp., Hialeah, Fla. 33016). A weighed sample was used and the humidity was lowest possible value (close to 0% RH) at the start of the analysis. The DMS analysis consisted of an initial drying step (˜0% RH) for 120 minutes, followed by two cycles of sorption and desorption with a scan rate of 5% RH/step over the humidity range of 5% RH to 90% RH. The DMS run was performed isothermally at 25° C.

Chain of JAK1 (P23458 whole entry): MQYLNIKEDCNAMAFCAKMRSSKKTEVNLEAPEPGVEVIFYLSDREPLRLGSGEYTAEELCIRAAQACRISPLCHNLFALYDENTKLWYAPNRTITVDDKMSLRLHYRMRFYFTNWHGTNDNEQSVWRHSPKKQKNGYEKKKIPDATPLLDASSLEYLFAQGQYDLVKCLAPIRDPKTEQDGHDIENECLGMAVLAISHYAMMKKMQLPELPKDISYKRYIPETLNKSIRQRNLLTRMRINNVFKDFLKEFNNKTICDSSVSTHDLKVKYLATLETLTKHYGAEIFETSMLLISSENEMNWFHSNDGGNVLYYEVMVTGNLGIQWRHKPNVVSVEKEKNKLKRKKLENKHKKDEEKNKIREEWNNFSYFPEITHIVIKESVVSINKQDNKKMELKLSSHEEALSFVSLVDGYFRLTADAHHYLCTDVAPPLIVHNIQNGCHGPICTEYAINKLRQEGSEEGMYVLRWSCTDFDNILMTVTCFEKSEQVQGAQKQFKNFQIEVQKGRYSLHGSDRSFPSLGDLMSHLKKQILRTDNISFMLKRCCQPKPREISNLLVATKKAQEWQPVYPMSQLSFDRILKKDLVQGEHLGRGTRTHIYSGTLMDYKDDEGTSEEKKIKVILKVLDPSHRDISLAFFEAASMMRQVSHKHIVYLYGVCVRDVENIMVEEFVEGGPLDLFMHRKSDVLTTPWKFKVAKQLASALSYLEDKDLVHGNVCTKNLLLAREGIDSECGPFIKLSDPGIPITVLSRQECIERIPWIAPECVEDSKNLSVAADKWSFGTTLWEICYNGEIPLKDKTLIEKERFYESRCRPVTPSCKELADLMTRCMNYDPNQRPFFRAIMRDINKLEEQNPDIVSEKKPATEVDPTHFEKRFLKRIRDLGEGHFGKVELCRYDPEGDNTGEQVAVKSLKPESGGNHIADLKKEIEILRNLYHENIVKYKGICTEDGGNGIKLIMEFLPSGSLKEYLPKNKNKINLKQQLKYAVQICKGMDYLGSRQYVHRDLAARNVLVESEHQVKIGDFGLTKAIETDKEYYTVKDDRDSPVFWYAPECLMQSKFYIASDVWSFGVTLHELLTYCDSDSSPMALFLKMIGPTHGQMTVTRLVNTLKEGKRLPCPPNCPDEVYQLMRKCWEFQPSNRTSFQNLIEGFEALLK

Compound	fold less potent than the corresponding compound of the invention in the enzyme assay (JAK1)	fold less potent than the corresponding compound of the invention in the BEAS-2B cellular assay [1]	factor by which lung concentration was smaller than that of the corresponding compound of the invention [2]	further results
CCc1cc(O)c(F)cc1-c1ccc2c(-c3nc4c([nH]3)CCN(C3CC(C)C3)C4)n[nH]c2c1 (stereo not shown) [Example C-1, 5-Ethyl-2-fluoro-4-(3-(5-(3-methylcyclobutyl)-4,5,6,7-tetrahydro-1H-imidazo[4,5-c]pyridin-2-yl)-1H-indazol-6-yl)phenol, reference compound]	2 fold	6 fold	36	
CCc1cc(O)c(F)cc1-c1ccc2c(-c3nc4c([nH]3)CCN(C3CCC(C)CC3)C4)n[nH]c2c1 (stereo not shown) [Example C-4, reference compound]	2.5 fold	6 fold	23	
CCc1cc(O)c(F)cc1-c1ccc2c(-c3nc4c([nH]3)CCN(C[C@@H]3CCCN3C)C4)n[nH]c2c1 [Example 11, (S)-5-ethyl-2-fluoro-4-(3-(5-((1-methylpyrrolidin-2-yl)methyl)-4,5,6,7-tetrahydro-1H-imidazo[4,5-c]pyridin-2-yl)-1H-indazol-6-yl)phenol]				Percent Inhibition of Alternaria-induced BALF Eosinophils [3]: 71%; Ki (JAK2): < 0.1 nM; Ki (JAK1; ATP at Km 25 μM, read-out: JAK 1 (pKi) (converted)): 0.1 to 1 nM; Lung to Plasma ratio Assay 4 [4]: A (A denotes a ratio >100); Ki (Tyk2): 0.316 to 1 nM; Ki (JAK3): 0.1 to 1 nM; IC50 ([1]; Homo sapiens, IL-13 induced STAT6 phosphorylation, BEAS-2B cells, read-out: BEAS-2B pIC50 (converted)): < 10 nM; inhibition in vivo at 500 µg/mL ([2]; 0.5 mg/mL, 50 μL oral aspiration, IL-13 challenge 4 h after dosing, lungs collected 1 h later, read-out: pSTAT6 inhibition Assay 5): 33 to 50%
CCc1cc(O)c(F)cc1-c1ccc2c(-c3nc4c([nH]3)CCN(C3CCN(C)CC3)C4)n[nH]c2c1 [crystalline hydrate, Crystalline hydrate of 5-ethyl-2-fluoro-4-(3-(5-(1-methylpiperidin-4-yl)-4,5,6,7-tetrahydro-1H-imidazo[4,5-c]pyridin-2-yl)-1H-indazol-6-yl)phenol]				weight gain (moisture sorption) ([5]; 5% to 90% relative humidity, about 25° C.): less than 0.12%; hygroscopicity ([5]; two cycles of sorption and desorption): non-hygroscopic
CCc1cc(O)c(F)cc1-c1ccc2c(-c3nc4c([nH]3)CCN(CC3CCCOC3)C4)n[nH]c2c1 (stereo not shown) [Example C-3, reference compound]	6 fold	3 fold	13	
CCc1cc(O)c(F)cc1-c1ccc2c(-c3nc4c([nH]3)CCN(CCC(C)C)C4)n[nH]c2c1 [Example C-2, reference compound]	3 fold	6 fold	52	
